The record followed here is publication PMC5863483, “Low HLA binding of diabetes-associated CD8+ T-cell epitopes is increased by post translational modifications” (BMC Immunology, 2018).

pIC50: −log10 of the molar value. *1 amine or outer side, *2 acyl side, *3 side chain or, on linkers, in order; H or OH if unused. Where a SMILES comes first, the peptide text is derived from it. Where no end group is shown, it is not given here. [ ]: non-standard residue; d: D form. Tyr(3-Cl) = N[C@@H](Cc1ccc(O)c(Cl)c1)C(=O)O; γGlu = O=C(O)[C@H](CCC(=O)[*:2])N[*:1]; βAsp = O=C(O)[C@H](CC(=O)[*:2])N[*:1]; Cya = N[C@@H](CS(=O)(=O)O)C(=O)O; Cit = NC(=O)NCCC[C@H](N)C(=O)O

As a reminder, the IC50 is the concentration needed to halve the response being measured.

One experiment addresses HLA-A*02:01 (Homo sapiens, UniProt P04439, D140Y/D185E/D98H/E176V/E277Q/G131W/G231S/I119V/I121R/I166T/I218V/L300P/L318F/N151K/N90K/P208A/P217A/Q86G/Q94H/R138H/R169H/T345S). The experiment is described as follows: HLA-peptide competition binding assay, A*02:01.
Conditions: not given
As to `CSCC[C@H](NC(=O)[C@@H](N)Cc1c[nH]c2ccccc12)C(=O)N[C@@H](CCCNC(N)=O)C(=O)N[C@@H](CC(C)C)C(=O)N[C@@H](CC(C)C)C(=O)N1CCC[C@H]1C(=O)N[C@@H](CC(C)C)C(=O)N[C@@H](CC(C)C)C(=O)N[C@@H](C)C(=O)N[C@@H](CC(C)C)C(=O)O` [WMULLPLLAL] (H-WM[Cit]LLPLLAL-OH), the pIC50 was 6.51.

As for RGYYYTPKT, the pIC50 was 5.06.

WMRLLPLLA showed a pIC50 of 5.82.

The experiment is the same for the next values; noted with them: increase of A*02:01 binding of the modified peptide compared to the WT peptide.
Regarding `CC(C)C[C@H](NC(=O)[C@@H](N)Cc1ccc(O)c(Cl)c1)C(=O)N[C@H](C(=O)N[C@@H](CS)C(=O)NCC(=O)N[C@@H](CCC(=O)O)C(=O)N[C@@H](CCCNC(=N)N)C(=O)NCC(=O)N[C@@H](Cc1ccccc1)C(=O)O)C(C)C` [JLVCGERGF] (H-[Tyr(3-Cl)]LVCGERGF-OH; N-terminus and C-terminus assumed), the Fold increase came to 2.13 fold.

Turning to `CC(C)C[C@H](NC(=O)[C@H](C)NC(=O)[C@H](CCC(=O)O)NC(=O)[C@@H](NC(=O)[C@H](CC(C)C)NC(=O)[C@H](Cc1c[nH]cn1)NC(=O)[C@@H](N)CO)C(C)C)C(=O)N[C@@H](Cc1ccc(O)c(Cl)c1)C(=O)N[C@@H](CC(C)C)C(=O)N[C@H](C(=O)O)C(C)C` [SHLVEALJLV] (H-SHLVEAL[Tyr(3-Cl)]LV-OH), the Fold increase is recorded as 2.02 fold.

Still in this experiment, the particulars now being: post-translationally modified insulin peptide; competition binding assay; a dash indicates IC50 >40,000 nM; read-out: A*02:01 binding (IC50 nM) Modified.
For the compound `CC(C)[C@H](N)C(=O)N[C@@H](CS)C(=O)NCC(=O)N[C@@H](CCC(=O)O)C(=O)N[C@@H](CCCNC(N)=O)C(=O)NCC(=O)N[C@@H](Cc1ccccc1)C(=O)N[C@@H](Cc1ccccc1)C(=O)N[C@@H](Cc1ccc(O)cc1)C(=O)N[C@H](C(=O)O)[C@@H](C)O` (H-VCGE[Cit]GFFYT-OH; N-terminus and C-terminus assumed), the IC50 is above 40000 nM.

For the compound GERGYFYTP, the IC50 was above 40000 nM.

Regarding `CC(C)C[C@H](NC(=O)[C@H](Cc1c[nH]cn1)NC(=O)[C@H](CO)NC(=O)CNC(=O)[C@H](CS(=O)(=O)O)NC(=O)[C@H](CC(C)C)NC(=O)[C@H](Cc1c[nH]cn1)NC(=O)[C@H](CCC(N)=O)NC(=O)[C@H](CC(N)=O)NC(=O)[C@@H](N)C(C)C)C(=O)O` [VNQHLBGSHL] (H-VNQHL[Cya]GSHL-OH; N-terminus and C-terminus assumed), the IC50 was above 40000 nM.

With `CC(C)C[C@H](NC(=O)[C@H](Cc1c[nH]cn1)NC(=O)CC[C@H](NC(=O)C[C@H](NC(=O)[C@@H](NC(=O)[C@@H](N)Cc1ccccc1)C(C)C)C(=O)O)C(=O)O)C(=O)N[C@@H](CS)C(=O)NCC(=O)N[C@@H](CO)C(=O)N[C@@H](Cc1c[nH]cn1)C(=O)O` [FVOZHLCGSH] (H-FV[βAsp][γGlu]HLCGSH-OH; N-terminus and C-terminus assumed), the half-maximal inhibitory concentration (IC50) was above 40000 nM.

As to FVDEHLCGS, the concentration for half-maximal inhibition (IC50) was above 40000 nM.

With `CC(C)[C@H](N)C(=O)N[C@@H](CS(=O)(=O)O)C(=O)NCC(=O)N[C@@H](CCC(=O)O)C(=O)N[C@@H](CCCNC(=N)N)C(=O)NCC(=O)N[C@@H](Cc1ccc(O)cc1)C(=O)N[C@@H](Cc1ccc(O)cc1)C(=O)N[C@@H](Cc1ccc(O)cc1)C(=O)O` [VBGERGYYY] (H-V[Cya]GERGYYY-OH; N-terminus and C-terminus assumed), the IC50 is above 40000 nM.

LVCGERGYF: the IC50 is above 40000 nM.

Regarding `CC[C@H](C)[C@H](NC(=O)CNC(=O)[C@H](CCCNC(N)=O)NC(=O)[C@H](CCCCN)NC(=O)[C@@H](N)CCC(N)=O)C(=O)N[C@H](C(=O)N[C@@H](CCC(=O)O)C(=O)N[C@@H](CCC(N)=O)C(=O)N[C@@H](CS)C(=O)O)C(C)C` (H-QK[Cit]GIVEQC-OH; N-terminus and C-terminus assumed), the IC50 is above 40000 nM.

On to `CC[C@H](C)[C@H](NC(=O)CNC(=O)[C@H](CCCNC(N)=O)NC(=O)[C@H](CCCCN)NC(=O)[C@H](CCC(N)=O)NC(=O)[C@H](CC(C)C)NC(=O)[C@H](CO)NC(=O)CNC(=O)[C@H](CCC(=O)O)NC(=O)[C@@H](N)CC(C)C)C(=O)O` (H-LEGSLQK[Cit]GI-OH; N-terminus and C-terminus assumed), for which the IC50 is above 40000 nM.

Turning to `CC[C@H](C)[C@H](NC(=O)CNC(=O)[C@H](CCCNC(N)=O)NC(=O)[C@H](CCCCN)NC(=O)[C@H](CCC(N)=O)NC(=O)[C@@H](N)CC(C)C)C(=O)N[C@H](C(=O)N[C@@H](CCC(=O)O)C(=O)N[C@@H](CCC(N)=O)C(=O)N[C@@H](CS)C(=O)O)C(C)C` (H-LQK[Cit]GIVEQC-OH; N-terminus and C-terminus assumed), the concentration for half-maximal inhibition (IC50) is above 40000 nM.

Turning to `CC(C)C[C@H](NC(=O)[C@H](Cc1c[nH]cn1)NC(=O)[C@H](CCC(N)=O)NC(=O)[C@H](CC(N)=O)NC(=O)[C@@H](NC(=O)[C@@H](N)Cc1ccccc1)C(C)C)C(=O)N[C@@H](CS(=O)(=O)O)C(=O)NCC(=O)N[C@@H](CO)C(=O)O` [FVNQHLBGS] (H-FVNQHL[Cya]GS-OH; N-terminus and C-terminus assumed), the IC50 is above 40000 nM.

Still in this experiment, the particulars now being: post-translationally modified insulin-derived peptide; radiolabeled ligand competition, purified MHC, two-day incubation, three or more independent experiments; read-out: A*02:01 binding, Modified.
For `CC(C)C[C@H](NC(=O)[C@H](C)NC(=O)[C@H](CCC(=O)O)NC(=O)[C@@H](NC(=O)[C@H](CC(C)C)NC(=O)[C@H](Cc1c[nH]cn1)NC(=O)[C@H](CO)NC(=O)CNC(=O)[C@@H](N)CS(=O)(=O)O)C(C)C)C(=O)N[C@@H](Cc1ccc(O)cc1)C(=O)O` [BGSHLVEALY] (H-[Cya]GSHLVEALY-OH), the pIC50 was 5.09.

As for `CSCC[C@H](NC(=O)[C@H](Cc1c[nH]c2ccccc12)NC(=O)[C@@H](N)CC(C)C)C(=O)N[C@@H](CCCNC(N)=O)C(=O)N[C@@H](CC(C)C)C(=O)N[C@@H](CC(C)C)C(=O)N1CCC[C@H]1C(=O)N[C@@H](CC(C)C)C(=O)N[C@@H](CC(C)C)C(=O)N[C@@H](C)C(=O)O` (H-LWM[Cit]LLPLLA-OH), the pIC50 was 7.21.

Staying with this experiment, now noted: read-out: A*02:01 binding (IC50 nM) Modified.
For the compound `CC[C@H](C)[C@H](NC(=O)CNC(=O)[C@H](CCCNC(N)=O)NC(=O)[C@H](CCCCN)NC(=O)[C@H](CCC(N)=O)NC(=O)[C@H](CC(C)C)NC(=O)[C@H](CO)NC(=O)CN)C(=O)N[C@H](C(=O)N[C@@H](CCC(=O)O)C(=O)O)C(C)C` [GSLQKUGIVE] (H-GSLQK[Cit]GIVE-OH), the half-maximal inhibitory concentration (IC50) was found to be 34500 nM.

With `CSCC[C@H](N)C(=O)N[C@@H](CCCNC(N)=O)C(=O)N[C@@H](CC(C)C)C(=O)N[C@@H](CC(C)C)C(=O)N1CCC[C@H]1C(=O)N[C@@H](CC(C)C)C(=O)N[C@@H](CC(C)C)C(=O)N[C@@H](C)C(=O)N[C@@H](CC(C)C)C(=O)O` [MULLPLLAL] (H-M[Cit]LLPLLAL-OH), the IC50 amounted to 1860 nM.

Still in this experiment, the particulars now being: read-out: A*02:01 binding (IC50 nM) WT.
As to VEALYLVCG, the IC50 worked out at 14300 nM.

Regarding LVEALYLVCG, the IC50 came to 23300 nM.

The experiment is the same for the next values; noted with them: read-out: IC50 nM, target assay A*02:01.
For RLLYPDYQI [reference compound], the IC50 amounted to 124 nM.

Turning to FLWSVFWLI [reference compound], the 50% inhibitory concentration (IC50) was 55 nM.

As to KMYAFTLES [reference compound], the concentration for half-maximal inhibition (IC50) was 880 nM.

Consider SMCRFSPLTL [reference compound], for which the IC50 came out at 1150 nM.

As to RLLCALTSL [reference compound], the IC50 amounted to 91 nM.

On to FIQVYEVERA [reference compound], for which the 50% inhibitory concentration (IC50) is 7020 nM.

ALWGPDPAAA [reference compound]: the IC50 came out at 1010 nM.

With LMFWSPSHSCA [reference compound], the 50% inhibitory concentration (IC50) was 143 nM.

With ALGDLFQSI [reference compound], the 50% inhibitory concentration (IC50) amounted to 76 nM.

Consider FLWSVFMLI [reference compound], for which the IC50 amounted to 26 nM.

As for “WLLPLWAAL [WLLPLWAAL, reference compound]”, the IC50 came to 4.2 nM.

In the case of FLFAVGFYL [reference compound], the IC50 turned out to be 1.1 nM.

For the compound ILAVDGVLSV [reference compound], the 50% inhibitory concentration (IC50) was found to be 2.2 nM.

Take KCQEVLAWL [reference compound]: the concentration for half-maximal inhibition (IC50) is above 40000 nM.

ELAEYLYNI [reference compound]: the IC50 was 637 nM.

In the case of VMNILLQYVV [reference compound], the concentration for half-maximal inhibition (IC50) was 2310 nM.

As to LASEKVYAI [reference compound], the IC50 came to 6930 nM.

In the case of RMMEYGTTMV [reference compound], the IC50 was determined as 709 nM.

Consider LLIDLTSFL [reference compound], for which the IC50 came out at 8.1 nM.

Consider LASEKVYTI [reference compound], for which the half-inhibitory concentration (IC50) was 1250 nM.

Take `CC(C)C[C@H](NC(=O)[C@@H](N)CCCNC(=N)N)C(=O)N[C@@H](CCCNC(=N)N)C(=O)N1CCC[C@H]1C(=O)N[C@@H](CC(C)C)C(=O)N[C@@H](CS)C(=O)N[C@@H](CS)C(=O)N[C@H](C(=O)N[C@@H](C)C(=O)O)[C@@H](C)O` [reference compound] (H-RLRPLCCTA-OH): the half-maximal inhibitory concentration (IC50) was 8230 nM.

Staying with this experiment, now noted: unmodified (WT) insulin peptide; competition binding assay; a dash indicates IC50 >40,000 nM; read-out: A*02:01 binding (IC50 nM) WT.
EGSLQKRGI: the IC50 is above 40000 nM.

On to VCGERGFFY, for which the half-inhibitory concentration (IC50) is above 40000 nM.

Turning to VNQHLCGSH, the IC50 was above 40000 nM.

For YTPKTRREAE, the half-inhibitory concentration (IC50) is above 40000 nM.

As to `C[C@@H](O)[C@H](NC(=O)[C@H](CCCCN)NC(=O)[C@@H]1CCCN1C(=O)[C@@H](NC(=O)[C@H](Cc1ccc(O)cc1)NC(=O)[C@H](Cc1ccccc1)NC(=O)[C@H](Cc1ccccc1)NC(=O)CNC(=O)[C@H](CCCNC(=N)N)NC(=O)[C@@H](N)CCC(=O)O)[C@@H](C)O)C(=O)O`, the IC50 is above 40000 nM.

As for KTRREAEDL, the concentration for half-maximal inhibition (IC50) was above 40000 nM.

Turning to FFYTPKTRR, the half-inhibitory concentration (IC50) is above 40000 nM.

The experiment is the same for the next values; noted with them: unmodified (wild type) insulin-derived peptide; radiolabeled ligand competition, purified MHC, two-day incubation, three or more independent experiments; read-out: A*02:01 binding, WT.
As for LYLVCGERG, the pIC50 is 4.55.

With `C[C@@H](O)[C@H](NC(=O)[C@H](CCCCN)NC(=O)[C@@H]1CCCN1C(=O)[C@@H](NC(=O)[C@H](Cc1ccc(O)cc1)NC(=O)[C@H](Cc1ccccc1)NC(=O)[C@H](Cc1ccccc1)NC(=O)CNC(=O)[C@H](CCCNC(=N)N)NC(=O)[C@@H](N)CCC(=O)O)[C@@H](C)O)C(=O)O`, the pIC50 is below 4.40.

In the case of `CC(C)C[C@H](NC(=O)[C@H](C)N)C(=O)N[C@@H](Cc1ccc(O)cc1)C(=O)N[C@@H](CC(C)C)C(=O)N[C@H](C(=O)N[C@@H](CS)C(=O)NCC(=O)N[C@@H](CCC(=O)O)C(=O)N[C@@H](CCCNC(=N)N)C(=O)NCC(=O)O)C(C)C`, the pIC50 was 5.06.

On to LALEGSLQKR, for which the pIC50 was below 4.40.

On to LWMRLLPLLA, for which the pIC50 is 6.39.
